For assay [1], the system named is acetylated histone H-4 in T24 human bladder cancer cells. The experiment in a line: Histone H4 acetylation in whole cells by immunoblots. It counts as cell-based. The settings on record: T-24, Table 5c, 16 h, read-out: H4Ac (T24) EC50. As to the method:
T24 human bladder cancer cells growing in culture were incubated with HDAC inhibitors for 16 h. […] of total histone protein was loaded onto SDS/PAGE and transferred to nitrocellulose membranes. Membranes were probed with polyclonal antibodies specific for acetylated histone H-4 (Upstate Biotech Inc.), followed by horse radish peroxidase conjugated secondary antibodies (Sigma). Enhanced Chemiluminescence (ECL) (Amersham) detection was performed using Kodak films (Eastman Kodak). Acetylated H-4 signal was quantified by densitometry.

Another assay concerns HCT116 cells. The experiment in a line: MTT assay. It counts as cell-based. The settings on record: Homo sapiens, HCT116 cells, 72 hours. The procedure, abridged:
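Read-out: MTT (0.5 mg/ml final, 4 h) after solubilization in 50% DMF/20% SDS, pH 4.7, with OD translated into cell number via the line's growth curve. Compound treatment lasted 72 h at 37 °C in 5% CO2, starting a day after plating.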
Background: Tetrazolium dyes change colour on reduction, which living cells bring about.

The target of assay [2] is T1, cloned recombinant human HDAC-1 (Homo sapiens, UniProt Q13547).
T1 construct: made in house; host or cells: Baculovirus insect cell expression system
Description: Human HDAC-1 enzyme inhibition, Assay 1 ([3H]-acetylated histone substrate, scintillation counting). It counts as biochemical. The procedure, abridged:
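Activity read as [3H]-acetic acid liberated from labeled substrate, ethyl acetate-extracted and scintillation-counted. Compounds preincubated 30 min at 4° C. with baculovirus-expressed, purified human HDAC-1. Dose-response curves give IC50 as concentration producing fifty percent of maximal inhibition.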

Where [3] appears, read: Table 5d, read-out: HDAC-1 IC50.
Where [4] appears, read: Table 5F, read-out: Human HDAC-1 IC50.

Read-outs that look alike come from different tables or passages of the source.

T1 sequence (Q13547 whole entry): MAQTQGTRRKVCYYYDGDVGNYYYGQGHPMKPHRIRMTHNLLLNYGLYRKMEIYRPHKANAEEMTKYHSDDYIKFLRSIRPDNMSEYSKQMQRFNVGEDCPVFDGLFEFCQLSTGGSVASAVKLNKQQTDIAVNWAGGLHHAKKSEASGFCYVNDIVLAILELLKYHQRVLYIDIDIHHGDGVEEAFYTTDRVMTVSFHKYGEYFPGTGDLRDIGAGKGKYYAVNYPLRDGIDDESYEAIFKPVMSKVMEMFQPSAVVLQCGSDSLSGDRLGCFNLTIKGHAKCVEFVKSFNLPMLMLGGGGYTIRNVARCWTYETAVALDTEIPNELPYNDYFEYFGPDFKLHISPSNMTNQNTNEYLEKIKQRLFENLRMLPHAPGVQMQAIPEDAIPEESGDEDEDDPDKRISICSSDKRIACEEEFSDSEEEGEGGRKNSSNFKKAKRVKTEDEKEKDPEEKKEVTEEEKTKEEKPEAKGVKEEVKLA

For `Nc1ccccc1NC(=O)/C=C/c1ccc(NCc2ccncc2)nc1` [Cpd 91], the EC50 in assay [1] worked out at 5 µM. The compound further returned an IC50 in the assay on HCT116 cells (HCT-116, 72 h, Table 5c) of 7 µM.

Turning to `Nc1ccccc1NC(=O)/C=C/c1ccc(NCc2ccc(F)cc2)nc1` [Cpd 92, N-(2-aminophenyl)-3-[6-(4-fluoro-benzylamino)-pyridin-3-yl]-acrylamide], the EC50 in assay [1] turned out to be 3 µM. For the same compound, in the assay with HCT116 cells (HCT-116, 72 h, Table 5c), inhibition was half-maximal at 2 µM (IC50).

Turning to `Nc1ccccc1NC(=O)/C=C/c1ccc(NCc2ccccc2)nc1` [Cpd 93, N-(2-aminophenyl)-3-(6-benzylamino-pyridin-3-yl)-acrylamide], the EC50 in assay [1] worked out at 5 µM. This compound also showed a 50% inhibitory concentration (IC50) in the assay on HCT116 cells (HCT-116, 72 h, Table 5c) of 1 µM.

Take `Nc1ccccc1NC(=O)/C=C/c1ccc(NCCCc2ccccc2)nc1` [Cpd 94, N-(2-aminophenyl)-3-[6-(3-phenyl-propylamino)-pyridin-3-yl]-acrylamide]: the EC50 in assay [1] was found to be 5 µM. In the assay on HCT116 cells (HCT-116, 72 h, Table 5c), this compound gave an IC50 of 2 µM.

As to `CN(C)c1ccc(CNc2ccc(/C=C/C(=O)Nc3ccccc3N)cn2)cc1` [Cpd 96, N-(2-aminophenyl)-3-[6-(4-dimethylamino-benzylamino)-pyridin-3-yl]-acrylamide], the EC50 in assay [1] worked out at 25 µM. Besides, in the assay with HCT116 cells (HCT-116, 72 h, Table 5c), 3 µM corresponded to half-maximal inhibition (IC50).

Take `Nc1ccccc1NC(=O)/C=C/c1ccc(NCc2ccc(OC(F)(F)F)cc2)nc1` [Cpd 99, N-(2-aminophenyl)-3-[6-(4-trifluoromethoxy-benzylamino)-pyridin-3-yl]-acrylamide]: the EC50 in assay [1] was 10 µM. The compound also showed an IC50 with HCT116 cells (HCT-116, 72 h, Table 5c) of 5 µM.

Take `Nc1ccccc1NC(=O)/C=C/c1ccc(CNc2ccc([N+](=O)[O-])cc2)cc1` [Cpd 550, N-(2-Amino-phenyl)-3-{4-[(4-nitro-phenylamino)-methyl]-phenyl}-acrylamide]: the IC50 in the assay with HCT116 cells (HCT-116, Table 5d) came out at 15 µM; in assay [2] (setting [3]), 4 µM.

For the compound `Nc1ccccc1NC(=O)/C=C/c1ccc(CNc2cccc([N+](=O)[O-])c2)cc1` [Cpd 551, N-(2-Amino-phenyl)-3-{4-[(3-nitro-phenylamino)-methyl]-phenyl}-acrylamide], the IC50 in the assay with HCT116 cells (HCT-116, Table 5d) is 9 µM; in assay [2] (setting [3]), 24 µM.

Turning to `Nc1ccccc1NC(=O)/C=C/c1ccc(CNc2ccc(Cl)cc2)cc1` [Cpd 552, N-(2-Amino-phenyl)-3-{4-[(4-chloro-phenylamino)-methyl]-phenyl}-acrylamide], the half-maximal inhibitory concentration (IC50) came out at 22 µM in the assay with HCT116 cells (HCT-116, Table 5d) and 4 µM in assay [2] (setting [3]).

`Nc1ccccc1NC(=O)/C=C/c1ccc(CNc2cccc(Cl)c2)cc1` [Cpd 553, N-(2-Amino-phenyl)-3-{4-[(3-chloro-phenylamino)-methyl]-phenyl}-acrylamide]: the half-inhibitory concentration (IC50) turned out to be 12 µM in the assay on HCT116 cells (HCT-116, Table 5d) and 4 µM in assay [2] (setting [3]).

As for `Nc1ccccc1NC(=O)/C=C/c1ccc(CNc2ccc(F)cc2)cc1` [Cpd 554, N-(2-Amino-phenyl)-3-{4-[(4-fluoro-phenylamino)-methyl]-phenyl}-acrylamide], the IC50 was determined as 12 µM with HCT116 cells (HCT-116, Table 5d) and 15 µM in assay [2] (setting [3]).

`CSc1cccc(NCc2ccc(/C=C/C(=O)Nc3ccccc3N)cc2)c1` [Cpd 555, N-(2-Amino-phenyl)-3-{4-[(3-methylsulfanyl-phenylamino)-methyl]-phenyl}-acrylamide]: the IC50 in the assay on HCT116 cells (HCT-116, Table 5d) was found to be 7 µM; in assay [2] (setting [3]) it was 14 µM.

On to `Nc1ccccc1NC(=O)/C=C/c1ccc(CNc2ccc(Br)cn2)cc1` [Cpd 557, N-(2-Amino-phenyl)-3-{4-[(5-bromo-pyridin-2-ylamino)-methyl]-phenyl}acrylamide], for which the half-inhibitory concentration (IC50) with HCT116 cells (HCT-116, Table 5d) was 6 µM; in assay [2] (setting [3]), 4 µM.

As for `Nc1ccccc1NC(=O)/C=C/c1ccc(CNc2cccc3ccccc23)cc1` [Cpd 558, N-(2-Amino-phenyl)-3-[4-(naphthalen-1-ylaminomethyl)-phenyl]-acrylamide], the IC50 with HCT116 cells (HCT-116, Table 5d) was determined as 10 µM; in assay [2] (setting [3]) it was 7 µM.

With `Nc1ccccc1NC(=O)/C=C/c1ccc(CNc2cccc(F)c2)cc1` [Cpd 559, N-(2-Amino-phenyl)-3-{4-[(3-fluoro-phenylamino)-methyl]-phenyl}-acrylamide], the IC50 with HCT116 cells (HCT-116, Table 5d) turned out to be 11 µM; in assay [2] (setting [3]), 4 µM.

For `COc1cc(/C=C/C(=O)Nc2ccccc2N)cc(OC)c1CNc1cc(OC)c(OC)c(OC)c1` [Cpd 560], the IC50 with HCT116 cells (HCT-116, Table 5d) was found to be 6 µM; in assay [2] (setting [3]) it was 21 µM.

With `COc1cc(NCc2ccc(/C=C/C(=O)Nc3cccc(O)c3N)cc2)cc(OC)c1OC` [Cpd 561], the IC50 with HCT116 cells (HCT-116, Table 5d) was > 25 µM; in assay [2] (setting [3]), > 25 µM.

Consider `COc1ccc(NCc2ccc(/C=C/C(=O)Nc3ccccc3N)cc2)c(OC)c1OC` [Cpd 562, N-(2-Amino-phenyl)-3-[4-[(2,3,4-trimethoxy-phenylamino)-methyl]-phenyl}-acrylamide], for which the IC50 in the assay on HCT116 cells (HCT-116, Table 5d) was 5 µM; in assay [2] (setting [3]), 5 µM.

With `COc1ccc(NCc2ccc(/C=C/C(=O)Nc3ccccc3N)cc2)cc1CNc1cc(OC)c(OC)c(OC)c1` [Cpd 563, N-(2-Amino-phenyl)-3-[4-([4-methoxy-3-[(3,4,5-trimethoxy-phenylamino)-methyl]-phenylamino}-methyl)-phenyl]-acrylamide], the half-inhibitory concentration (IC50) with HCT116 cells (HCT-116, Table 5d) stood at 6 µM; in assay [2] (setting [3]), 24 µM.

With `COc1cc(NCc2ccc(/C=C/C(=O)Nc3cccc(N)c3N)cc2)cc(OC)c1OC` [Cpd 564], the IC50 in the assay with HCT116 cells (HCT-116, Table 5d) is > 25 µM; in assay [2] (setting [3]), > 25 µM.

Take `CSc1ccc(NCc2ccc(/C=C/C(=O)Nc3ccccc3N)cc2)cc1F` [Cpd 565, N-(2-Amino-phenyl)-3-{4-[(3-fluoro4-methylsulfanyl-phenylamino)-methyl]-phenyl}-acrylamide]: the IC50 in the assay with HCT116 cells (HCT-116, Table 5d) is 17 µM; in assay [2] (setting [3]), 5 µM.

As to `CSc1ccc(NCc2ccc(/C=C/C(=O)Nc3ccccc3N)cc2)cc1C(F)(F)F` [Cpd 566, N-(2-Amino-phenyl)-3-{4-[(4-methylsulfanyl-3-trifluoromethyl-phenylamino)-methyl]-phenyl]-acrylamide], the 50% inhibitory concentration (IC50) in the assay with HCT116 cells (HCT-116, Table 5d) is 16 µM; in assay [2] (setting [3]), 3 µM.

On to `COc1cc(NCc2ccc(/C=C/C(=O)Nc3ccccc3N)cc2[N+](=O)[O-])cc(OC)c1OC` [Cpd 567], for which the IC50 with HCT116 cells (HCT-116, Table 5d) was 3 µM; in assay [2] (setting [3]), 13 µM.

Consider `COc1cc(NCc2ccc(/C=C/C(=O)Nc3ccccc3N)cc2N)cc(OC)c1OC` [Cpd 568], for which the half-maximal inhibitory concentration (IC50) in the assay on HCT116 cells (HCT-116, Table 5d) is 39 µM; in assay [2] (setting [3]), > 25 µM.

Turning to `COc1ccc(-c2ccc(/C=C/C(=O)Nc3ccccc3N)cn2)cc1OC` [Cpd 569], the IC50 with HCT116 cells (HCT-116, Table 5d) is 6 µM; in assay [2] (setting [3]) it was 18 µM.

For `COc1cc(NCc2ccc(C(=O)Nc3ccccc3N)cc2)cc(OC)c1OC` [Cpd 571], the IC50 in the assay with HCT116 cells (HCT-116, 72 h, Table 5F) amounted to 11 µM; in assay [2] (setting [4]), 4 µM.

On to `COc1ccc(CNc2ccc(C3CC3C(=O)Nc3ccccc3N)cn2)cc1` (stereo not drawn) [Cpd 576], for which the half-maximal inhibitory concentration (IC50) worked out at 6 µM in the assay with HCT116 cells (HCT-116, 72 h, Table 5F) and 5 µM in assay [2] (setting [4]).

For the compound `CCN1C(=O)C(Cc2ccc(C(=O)Nc3ccccc3N)cc2)Oc2ccccc21` (stereo not drawn) [compound 269, N-(2-Amino-phenyl)-4-(4-ethyl-3-oxo-3,4-dihydro-2H-benzo[1,4]oxazin-2-ylmethyl)-benzamide], the IC50 was 4 µM with HCT116 cells (HCT-116, 72 h, Table 5F) and 9 µM in assay [2] (setting [4]).

Consider `Cc1nc(Cc2ccc(C(=O)Nc3ccccc3N)cc2)no1` [compound 284, N-(2-Amino-phenyl)-4-(5-methyl-[1,2,4]oxadiazol-3-ylmethyl)-benzamide], for which the half-inhibitory concentration (IC50) in the assay with HCT116 cells (HCT-116, 72 h, Table 5F) was 5 µM; in assay [2] (setting [4]), 3 µM.

Turning to `Cc1cc(C)n(-c2ccc(C(=O)Nc3ccccc3N)cc2)n1` [compound 286, N-(2-Amino-phenyl)-4-(3,5-dimethyl-pyrazol-1-yl)-benzamide], the half-inhibitory concentration (IC50) was determined as 2 µM in the assay with HCT116 cells (HCT-116, 72 h, Table 5F) and 5 µM in assay [2] (setting [4]).

`COc1cc(C2C=CC(c3ccc(C(=O)Nc4ccccc4N)cc3)O2)cc(OC)c1OC` (stereo not drawn) [compound 289, N-(2-Amino-phenyl)-4-[5-(3,4,5-trimethoxy-phenyl)-2,5-dihydro-furan-2-yl]-benzamide]: the concentration for half-maximal inhibition (IC50) in the assay with HCT116 cells (HCT-116, 72 h, Table 5F) was 5 µM; in assay [2] (setting [4]) it was 17 µM.

Take `COc1cc(C2CCC(c3ccc(C(=O)Nc4ccccc4N)cc3)O2)cc(OC)c1OC` (stereo not drawn) [compound 290, N-(2-Amino-phenyl)-4-[5-(3,4,5-trimethoxy-phenyl)-tetrahydro-furan-2-yl]-benzamide]: the IC50 in the assay on HCT116 cells (HCT-116, 72 h, Table 5F) came out at 3 µM; in assay [2] (setting [4]), 11 µM.

As to `COc1cc(N2C(=O)OCC2c2ccc(C(=O)Nc3ccccc3N)cc2)cc(OC)c1OC` (stereo not drawn) [compound 296, N-(2-Amino-phenyl)-4-[2-oxo-3-(3,4,5-trimethoxy-phenyl)-oxazolidin-4-yl]-benzamide], the half-maximal inhibitory concentration (IC50) in the assay with HCT116 cells (HCT-116, 72 h, Table 5F) came to 7 µM; in assay [2] (setting [4]) it was 20 µM.

As for `COc1ccc(C2=NC(c3ccc(C(=O)Nc4ccccc4N)cc3)CO2)cc1OC` (stereo not drawn) [compound 301, N-(2-Amino-phenyl)-4-[2-(3,4-dimethoxy-phenyl)-4,5-dihydro-oxazol-4-yl]-benzamide], the IC50 turned out to be 3 µM with HCT116 cells (HCT-116, 72 h, Table 5F) and 3 µM in assay [2] (setting [4]).

With `COc1ccc(C2=NCC(c3ccc(C(=O)Nc4ccccc4N)cc3)O2)cc1OC` (stereo not drawn) [compound 305, N-(2-Amino-phenyl)-4-[2-(3,4-dimethoxy-phenyl)-4,5-dihydro-oxazol-5-yl]-benzamide], the half-maximal inhibitory concentration (IC50) in the assay on HCT116 cells (HCT-116, 72 h, Table 5F) was 2 µM; in assay [2] (setting [4]) it was 4 µM.

As to `Nc1ccccc1NC(=O)c1ccc(Sc2ccc3ccccc3n2)nc1` [compound 319, N-(2-Amino-phenyl)-6-(quinolin-2-ylsulfanyl)-nicotinamide], the IC50 with HCT116 cells (HCT-116, 72 h, Table 5F) is 8 µM; in assay [2] (setting [4]), 4 µM.

Usually EC50 stands for the concentration giving half of the maximal effect. For orientation: IC50 means the midpoint of a concentration-inhibition curve.

The record behind these values is patent US7868204B2, “Inhibitors of histone deacetylase” (MethylGene Inc., priority 2001, dated 2011).
